# Data: US8349829B2, “[4-(1-amino-ethyl)-cyclohexyl]-methyl-amine and [6-(1-amino-ethyl)-tetrahydro-pyran-3-yl]-methyl-amine derivatives as antibacterials” (Actelion Pharmaceuticals Ltd., priority 2008, dated 2013)
# Assays:
# [1] = test system: E. coli 25922; assay: MIC by microdilution in cation-adjusted Mueller-Hinton Broth (NCCLS); format: cell-based; conditions: for MIC: Escherichia coli, 25922, pH 7.2-7.3; for MIC for E. coli 25922: pH 7.2-7.3
# Procedure: (§1) These assays have been performed following the description given in “Methods for dilution Antimicrobial Susceptibility Tests for Bacteria that Grow Aerobically, 4th ed.; Approved standard: NCCLS Document M7-A4; National Committee for Clinical Laboratory Standards: Villanova, Pa., USA, 1997”. Minimal inhibitory concentrations (MICs; mg/l) were determined in cation-adjusted Mueller-Hinton Broth (BBL) by a microdilution method following NCCLS guidelines (National Committee for Clinical Laboratory Standards. Methods for Dilution Antimicrobial Susceptibility). The pH of the test medium was 7.2-7.3. All Example compounds were tested against several Gram positive and Gram negative bacteria such as S. aureus, E. faecalis, S. pneumoniae, M catarrhalis, A. baumanii, E. coli or P. aeruginosa.
# [2] = test system: P. aeruginosa 27853; assay: as above; format: cell-based; conditions: for MIC: Pseudomonas aeruginosa, 27853, pH 7.2-7.3; for MIC for P. aeruginosa 27853: pH 7.2-7.3
# Procedure: as §1
structure (smiles),measurement,setting,value
"COc1ccc2ccc(=O)n(CC(N)[C@H]3CC[C@H](NCc4ccc5c(n4)NC(=O)CS5)CC3)c2c1 (mixture of isomers) [Ref. Ex. 1, rac-6-(trans-{4-[1-amino-2-(7-methoxy-2-oxo-2H-quinolin-1-yl)-ethyl]-cyclohexylamino}-methyl)-4H-pyrido[3,2-b][1,4]thiazin-3-one]",MIC,[1],0.25 µg/mL
same,MIC,[2],0.5 µg/mL
"COc1ccc2ccc(=O)n(CC(N)[C@H]3CC[C@H](NCc4ccc5c(n4)NC(=O)CO5)CC3)c2c1 (mixture of isomers) [Ref. Ex. 2, rac-6-(trans-{4-[1-amino-2-(7-methoxy-2-oxo-2H-quinolin-1-yl)-ethyl]-cyclohexylamino}-methyl)-4H-pyrido[3,2-b][1,4]oxazin-3-one]",MIC,[1],0.5 µg/mL
same,MIC,[2],0.5 µg/mL
"COc1ccc2ccc(=O)n(C[C@H](N)[C@H]3CC[C@H](NCc4ccc5c(n4)NC(=O)CS5)CC3)c2c1 [Example 1, 6-(trans-{4-[(1R)-1-amino-2-(7-methoxy-2-oxo-2H-quinolin-1-yl)-ethyl]-cyclohexylamino}-methyl)-4H-pyrido[3,2-b][1,4]thiazin-3-one]",MIC,[1],0.063 µg/mL
same,MIC,[2],0.25 µg/mL
"COc1ccc2ccc(=O)n(C[C@H](N)[C@H]3CC[C@H](NCc4ccc5c(n4)NC(=O)CO5)CC3)c2c1 [Example 2, 6-(trans-{4-[(1R)-1-amino-2-(7-methoxy-2-oxo-2H-quinolin-1-yl)-ethyl]-cyclohexylamino}-methyl)-4H-pyrido[3,2-b][1,4]oxazin-3-one]",MIC,[1],0.25 µg/mL
same,MIC,[2],0.25 µg/mL
"COc1ccc2ccc(=O)n(C[C@H](N)[C@@H]3CC[C@@H](NCc4ccc5c(n4)NC(=O)CO5)CO3)c2c1 [Example 3, 6-({(3R,6S)-6-[(1S)-1-amino-2-(7-methoxy-2-oxo-2H-quinolin-1-yl)-ethyl]-tetrahydro-pyran-3-ylamino}-methyl)-4H-pyrido[3,2-b][1,4]oxazin-3-one]",MIC,[1],0.25 µg/mL
same,MIC,[2],4 µg/mL
"COc1ccc2ccc(=O)n(C[C@H](N)[C@@H]3CC[C@@H](NC/C=C/c4cc(F)ccc4F)CO3)c2c1 [Example 4, 1-((2S)-2-amino-2-{(2S,5R)-5-[(E)-3-(2,5-difluoro-phenyl)-allylamino]-tetrahydro-pyran-2-yl}-ethyl)-7-methoxy-1H-quinolin-2-one]",MIC,[1],0.063 µg/mL
same,MIC,[2],2 µg/mL
COc1ccc2ccc(=O)n(C[C@H](N)[C@@H]3CC[C@@H](NCc4ccc5c(n4)NC(=O)CS5)CO3)c2c1 [Example 5],MIC for E. coli 25922,[1],0.125 µg/mL
same,MIC for P. aeruginosa 27853,[2],2 µg/mL
"COc1cnc2ccc(=O)n(C[C@H](N)[C@@H]3CC[C@@H](NCc4ccc5c(n4)NC(=O)CS5)CO3)c2c1 [Example 6, 6-({(3R,6S)-6-[(1S)-1-amino-2-(7-methoxy-2-oxo-2H-[1,5]naphthyridin-1-yl)-ethyl]-tetrahydro-pyran-3-ylamino}-methyl)-4H-pyrido[3,2-b][1,4]thiazin-3-one]",MIC,[1],0.25 µg/mL
same,MIC,[2],2 µg/mL
"COc1cnc2ccc(=O)n(C[C@H](N)[C@@H]3CC[C@@H](NCc4ccc5c(n4)NC(=O)CO5)CO3)c2c1 [Example 7, 6-({(3R,6S)-6-[(1S)-1-amino-2-(7-methoxy-2-oxo-2H-[1,5]naphthyridin-1-yl)-ethyl]-tetrahydro-pyran-3-ylamino}-methyl)-4H-pyrido[3,2-b][1,4]oxazin-3-one]",MIC,[1],1 µg/mL
same,MIC,[2],4 µg/mL
"COc1cnc2ccc(=O)n(C[C@H](N)[C@@H]3CC[C@@H](NCc4ccc5c(c4)NC(=O)CO5)CO3)c2c1 [Example 8, 6-({(3R,6S)-6-[(1S)-1-amino-2-(7-methoxy-2-oxo-2H-[1,5]naphthyridin-1-yl)-ethyl]-tetrahydro-pyran-3-ylamino}-methyl)-4H-benzo[1,4]oxazin-3-one]",MIC,[1],1 µg/mL
same,MIC,[2],4 µg/mL
"COc1ccc2ncc(=O)n(C[C@H](N)[C@@H]3CC[C@@H](NCc4ccc5c(n4)NC(=O)CS5)CO3)c2c1 [Example 9, 6-({(3R,6S)-6-[(1S)-1-amino-2-(7-methoxy-2-oxo-2H-quinoxalin-1-yl)-ethyl]-tetrahydro-pyran-3-ylamino}-methyl)-4H-pyrido[3,2-b][1,4]thiazin-3-one]",MIC,[1],0.25 µg/mL
same,MIC,[2],16 µg/mL
"COc1ccc2ccc(=O)n(C[C@H](N)[C@@H]3CC[C@@H](NCc4ccc5c(n4)NC(=O)CS5)CO3)c2n1 [Example 10, 6-({(3R,6S)-6-[(1S)-1-amino-2-(7-methoxy-2-oxo-2H-[1,8]naphthyridin-1-yl)-ethyl]-tetrahydro-pyran-3-ylamino}-methyl)-4H-pyrido[3,2-b][1,4]thiazin-3-one]",MIC,[1],≤ 0.031 µg/mL
same,MIC,[2],0.5 µg/mL
"COc1ccc2ccc(=O)n(C[C@H](N)[C@@H]3CC[C@@H](NCc4ccc5c(n4)NC(=O)CO5)CO3)c2n1 [Example 11, 6-({(3R,6S)-6-[(1S)-1-amino-2-(7-methoxy-2-oxo-2H-[1,8]naphthyridin-1-yl)-ethyl]-tetrahydro-pyran-3-ylamino}-methyl)-4H-pyrido[3,2-b][1,4]oxazin-3-one]",MIC,[1],0.5 µg/mL
same,MIC,[2],8 µg/mL
"COc1ccc2ccc(=O)n(C[C@H](N)[C@@H]3CC[C@@H](NCc4cc5c(cn4)OCCO5)CO3)c2n1 [Example 12, 1-((1S)-2-amino-2-{(2S,5R)-5-[(2,3-dihydro-[1,4]dioxino[2,3-c]pyridin-7-ylmethyl)-amino]-tetrahydro-pyran-2-yl}-ethyl)-7-methoxy-1H-[1,8]naphthyridin-2-one]",MIC for E. coli 25922,[1],0.063 µg/mL
same,MIC for P. aeruginosa 27853,[2],0.5 µg/mL
"COc1ccc2ccc(=O)n(CC(N)C3CCC(NC/C=C/c4cc(F)ccc4F)CC3)c2c1 [Example 13, 1-((1R)-2-amino-2-{4-[(E)-3-(2,5-difluoro-phenyl)-allylamino]-cyclohexyl}-ethyl)-7-methoxy-1H-quinolin-2-one]",MIC for E. coli 25922,[1],0.25 µg/mL
same,MIC for P. aeruginosa 27853,[2],1 µg/mL
